Source: patent US10669238B2, “Irreversible bruton's tyrosine kinase inhibitor” (HEFEI INSTITUTES OF PHYSICAL SCIENCE, CHINESE ACADEMY OF …, priority 2016, dated 2020)

Assays:
[1] = system: bone marrow plasma cell tumor cells AMO-1; experiment: Cell proliferation (Cell Titer-Glo), AMO-1; type: cell-based; settings: Homo sapiens, AMO1; AMO-1, 72 hours; read-out: Effects on cell proliferation (GI50)
Protocol: (§1) The selectivity of Compound 1 in inhibiting the proliferation of cancer cells was further evaluated by testing the effect of Btk inhibitors on the growth of cancer cells. […]
(§2) In this example different concentrations (0.000508 μM, 0.00152 μM, 0.00457 μM, 0.0137 μM, 0.0411 μM, 0.123 μM, 0.370 μM, 1.11 μM, 3.33 μM, 10 μM) of Compound 1 and Compound 6 were respectively added into the above cells which were then cultured for 72 hours. The number of viable cells was determined via quantitative determination of ATP in living cells by using Cell Titer-Glo® (Promega, the USA) Chemical Luminescent Cell Viability Assay kit.

[2] = target: T1, TEL-JAK3-BaF3 cells (stably expressing TEL-JAK3 activated kinase) (Homo sapiens, UniProt P52333); experiment: Cell proliferation (Cell Titer-Glo), BaF3-tel-JAK3; type: cell-based; settings: BaF3-tel-JAK3 (mouse BaF3 cells), 72 hours; read-out: Effects on cell proliferation (GI50)
T1 construct: expressed in transfected cells; host or cells: mouse BaF3 cells, retroviral MSCV-Puro; the other entry of the earlier key: ETV6 (P41212, Transcription factor ETV6)
Protocol: as §1, §2

[3] = system: mouse pro-B cells BaF3; experiment: Cell proliferation (Cell Titer-Glo), WT-BaF3; type: cell-based; settings: WT-BaF3, 72 hours, read-out: Effects on cell proliferation (GI50)
Protocol: as §1, §2

[4] = system: acute myeloid leukemia cell lines M-07e; experiment: Cell proliferation (Cell Titer-Glo), M-07e; type: cell-based; settings: 72 hours, read-out: Effects on cell proliferation (GI50)
Protocol: as §1, §2

[5] = system: MDS-RAEB cell lines SKM-1; experiment: Cell proliferation (Cell Titer-Glo), SKM-1; type: cell-based; settings: Homo sapiens; SKM-1, 72 hours; read-out: Effects on cell proliferation (GI50)
Protocol: as §1, §2

[6] = system: acute myeloid leukemia cell lines MOLM14; experiment: Cell proliferation (Cell Titer-Glo), MOLM14; type: cell-based; settings: Homo sapiens, MOLM-14; MOLM14, 72 hours; read-out: Effects on cell proliferation (GI50)
Protocol: as §1, §2

[7] = system: acute promyelocytic leukemia cell line NB-4 (Lu+); experiment: Cell proliferation (Cell Titer-Glo), NB4; type: cell-based; settings: NB4, 72 hours; read-out: Effects on cell proliferation (GI50)
Protocol: as §1, §2

[8] = system: colon cancer cells HCT116; experiment: Cell proliferation (Cell Titer-Glo), HCT116; type: cell-based; settings: Homo sapiens, HCT-116; HCT116, 72 hours; read-out: Effects on cell proliferation (GI50)
Protocol: as §1, §2

[9] = system: acute myeloid leukemia cell lines MOLM16; experiment: Cell proliferation (Cell Titer-Glo), MOLM-16; type: cell-based; settings: MOLM-16, 72 hours, read-out: Effects on cell proliferation (GI50)
Protocol: as §1, §2

[10] = target: T2, TEL-EGFR/T790-BaF3 cells (stably expressing TEL-EGFR-C797S point mutation kinase) (Homo sapiens, UniProt P00533, C797S); experiment: Cell proliferation (Cell Titer-Glo), BaF3-tel-EGFR-C797S; type: cell-based; settings: BaF3-tel-EGFR-C797S (mouse BaF3 cells), 72 hours; read-out: Effects on cell proliferation (GI50)
T2 construct: expressed in transfected cells; host or cells: mouse BaF3 cells, retroviral MSCV-Puro
Protocol: as §1, §2

[11] = target: T3, BTK C481S (Homo sapiens, UniProt Q06187, C481S); experiment: Btk cell-free kinase assay, BTK C481S mutant protein; type: biochemical; settings: compound 30 mins at room temperature, then 100 μM ATP 20 min at 37° C.
T3 construct: made in house; host or cells: SF9 insect cells
Excerpt: The BTK wild-type plasmid and the BTK mutant plasmid (C481S) were respectively transfected into SF9 cells (purchased from invitrogen), and after three generations of virus amplification, the P3-generation virus was used to transfect SF9 cells which were collected after 72-hour culture to obtain protein BTK WT and protein BTK C481S, which were then purified.

[12] = system: acute myeloid leukemia cell lines U937; experiment: Cell proliferation (Cell Titer-Glo), U937; type: cell-based; settings: Homo sapiens, U-937; U937, 72 hours; read-out: Effects on cell proliferation (GI50)
Protocol: as §1, §2

[13] = system: diffuse large B-cell lymphoma cell lines TMD8; experiment: Cell proliferation (Cell Titer-Glo), TMD8; type: cell-based; settings: Homo sapiens, TMD8, 72 h, read-out: Effects on cell proliferation (GI50)
Excerpt: The following cells were adopted in the example: acute myelocytic leukemia cell strains (acute myelocytic leukemia, AML) HL-60, B-lymphoma cell Ramos, colon cancer cells HCT116, leukemic cells K562, B-cell lymphoma cells U2932, diffuse large B-cell lymphoma cell line OCI-LY10, diffuse histiocytic lymphoma cells SU-DHL-2, diffuse large B-cell lymphoma cell lines TMD8, leukemia cell OCI-AML-3, acute promyelocytic leukemia cell line NB-4 (Lu+), MDS-RAEB (myelodysplastic syndrome—excessive blasts) cell lines SKM-1, human leukocyte leukemia cells HEL, acute myeloid leukemia cell lines (acute myelocytic leukemia, AML) U937, acute myeloid leukemia cell lines (acute myelocytic leukemia, AML) MOLM14, acute myeloid leukemia cell lines (acute myelocytic leukemia, AML) MOLM13, acute myeloid leukemia cell lines (acute myelocytic leukemia, AML) M-07e, acute myeloid leukemia cell lines (acute myelocytic leukemia, AML) MV4-11, acute myeloid leukemia cell lines (acute myelocytic leukemia, AML) MOLM16, diffuse large B-cell lymphoma cell lines Pfeiffer, multiple myeloma cell lines (multiple myeloma) RPM18226, bone marrow plasma cell tumor cells AMO-1, mouse pro-B cells BaF3, all purchased from ATCC.

[14] = target: T4, TEL-EGFR-BaF3 (stably expressing TEL-EGFR activated kinase) (Homo sapiens, UniProt P00533); experiment: Cell proliferation (Cell Titer-Glo), BaF3-tel-EGFR; type: cell-based; settings: BaF3-tel-EGFR (mouse BaF3 cells), 72 hours; read-out: Effects on cell proliferation (GI50)
T4 construct: expressed in transfected cells; host or cells: mouse BaF3 cells, retroviral MSCV-Puro; the other entry of the earlier key: ETV6 (P41212, Transcription factor ETV6)
Protocol: as §1, §2

[15] = system: acute myeloid leukemia cell lines MV4-11; experiment: Cell proliferation (Cell Titer-Glo), MV4-11; type: cell-based; settings: Homo sapiens; MV4-11, 72 hours; read-out: Effects on cell proliferation (GI50)
Protocol: as §1, §2

T2 sequence (P00533 712-979 C797S limits assumed): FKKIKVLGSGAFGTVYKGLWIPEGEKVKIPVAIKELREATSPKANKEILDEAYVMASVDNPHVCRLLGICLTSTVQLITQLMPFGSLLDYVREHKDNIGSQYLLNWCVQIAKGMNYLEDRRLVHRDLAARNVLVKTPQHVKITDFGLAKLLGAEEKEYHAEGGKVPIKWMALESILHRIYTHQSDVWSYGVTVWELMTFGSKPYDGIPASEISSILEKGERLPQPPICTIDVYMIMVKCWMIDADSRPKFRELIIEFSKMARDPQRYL
T1 sequence (P52333 822-1111 limits assumed): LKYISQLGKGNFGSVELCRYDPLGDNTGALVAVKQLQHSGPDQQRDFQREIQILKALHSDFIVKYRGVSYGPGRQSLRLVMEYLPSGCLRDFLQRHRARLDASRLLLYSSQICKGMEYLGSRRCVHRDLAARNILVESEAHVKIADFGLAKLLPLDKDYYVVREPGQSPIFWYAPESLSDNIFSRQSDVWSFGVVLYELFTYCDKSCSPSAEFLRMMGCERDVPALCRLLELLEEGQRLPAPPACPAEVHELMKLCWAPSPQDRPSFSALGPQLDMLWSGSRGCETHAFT
T4 sequence (P00533 712-979 limits assumed): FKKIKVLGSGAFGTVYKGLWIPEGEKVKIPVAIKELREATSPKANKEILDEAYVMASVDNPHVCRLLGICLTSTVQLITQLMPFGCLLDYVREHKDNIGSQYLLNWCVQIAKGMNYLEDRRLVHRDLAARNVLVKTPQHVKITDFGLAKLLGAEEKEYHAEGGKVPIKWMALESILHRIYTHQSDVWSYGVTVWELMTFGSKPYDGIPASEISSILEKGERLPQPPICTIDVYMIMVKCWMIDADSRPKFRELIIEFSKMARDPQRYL
T3 sequence (Q06187 whole entry C481S): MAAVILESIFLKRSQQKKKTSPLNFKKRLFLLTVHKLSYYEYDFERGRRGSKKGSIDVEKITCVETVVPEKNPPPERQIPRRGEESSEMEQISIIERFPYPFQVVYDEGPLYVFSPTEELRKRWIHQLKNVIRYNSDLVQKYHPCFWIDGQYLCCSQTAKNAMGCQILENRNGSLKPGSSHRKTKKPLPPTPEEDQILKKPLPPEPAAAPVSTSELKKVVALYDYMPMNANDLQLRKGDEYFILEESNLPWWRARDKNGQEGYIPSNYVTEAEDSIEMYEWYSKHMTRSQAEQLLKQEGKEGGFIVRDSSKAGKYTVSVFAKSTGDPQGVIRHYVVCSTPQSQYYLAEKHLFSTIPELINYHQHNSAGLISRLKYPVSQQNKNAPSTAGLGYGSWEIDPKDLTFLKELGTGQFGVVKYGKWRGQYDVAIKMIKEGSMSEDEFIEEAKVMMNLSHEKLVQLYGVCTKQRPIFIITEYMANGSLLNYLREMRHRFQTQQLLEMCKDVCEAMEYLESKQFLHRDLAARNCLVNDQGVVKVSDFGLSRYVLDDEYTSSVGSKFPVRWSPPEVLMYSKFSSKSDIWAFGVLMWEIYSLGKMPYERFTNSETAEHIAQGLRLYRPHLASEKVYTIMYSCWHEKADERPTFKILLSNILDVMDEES

GI50 [1] [µM]	GI50 [2] [µM]	GI50 [3] [µM]	GI50 [4] [µM]	GI50 [5] [µM]	GI50 [6] [µM]	GI50 [7] [µM]	GI50 [8] [µM]	GI50 [9] [µM]	GI50 [10] [µM]	inhibitory effects against BTK C481S [11]	GI50 [12] [µM]	GI50 [13] [µM]	GI50 [14] [µM]	GI50 [15] [µM]	EC50 ([11]; read-out: EC50 against BTK C481S) [µM]	SMILES
8	4.6	6.3	> 10	> 10	> 10	> 10	> 10	> 10	1.8	no inhibitory effects	> 10	0.75	7.6	4.8	–	CCC(=O)Nc1cc(Nc2cc(-c3cccc(NC(=O)c4ccc(C(C)(C)C)cc4)c3C)cn(C)c2=O)ccc1C(=O)N1CCOCC1 [Compound 6, N-(3-(5-((3-propanamide-4-(morpholin-4-carbonyl)phenyl)amino)-1-methyl-6-oxo-1,6-dihydropyridin-3-yl)-2-methylphenyl)-4-(tert-butyl)benzamide]
3.4	3.2	7.9	7.3	7.1	6.4	6.6	> 10	3.5	2.5	–	4.8	0.001	5.3	2.1	0.185	C=CC(=O)Nc1cc(Nc2cc(-c3cccc(NC(=O)c4ccc(C(C)(C)C)cc4)c3C)cn(C)c2=O)ccc1C(=O)N1CCOCC1 [Compound 1, N-(3-(5-((3-acrylamide-4-(morpholin-4-carbonyl)phenyl)amino)-1-methyl-6-oxo-1,6-dihydropyridin-3-yl)-2-methylphenyl)-4-(tert-butyl)benzamide]
